Measured values: publication PMC7413254 (Nature Communications, 2020)
Read-outs that look alike come from different tables or passages of the source.

Columns and labels:
Settings in all cases: trans-stimulation, solute 2 mM
[1] = system: non-expressing oocytes; assay type: cell-based, Xenopus laevis
How it was run: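 Oocytes (ten per treatment, ≥4 independent frogs/days) were preloaded by injecting VF-6 in 25 nL ND96 at pH 5.0, 5.5, 6.0 or 7.0, or Na^+-free choline buffer, then uptake run 1.5 h, 27.5 °C, ND96 pH 5.5 by default. Internal concentrations assumed ~400 nL oocyte volume.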

[2] = biological target: PfCRT^3D7 (Plasmodium falciparum, UniProt Q8IBZ9); assay: cell-based; assay type: cell-based
How it was run: (§1)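 Transport measured in Xenopus oocytes expressing the transporters, 1.5 h at 27.5 °C in ND96 pH 5.5 unless noted. For trans-stimulation, VF-6 injected in 25 nL ND96 at pH 5.0–7.0 or Na^+-free (choline) buffer; intracellular levels based on ~400 nL oocyte volume. Ten oocytes per treatment, ≥4 experiments.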

[3] = biological target: PfCRT^Dd2 (Plasmodium falciparum, UniProt Q9N623, A220S/I356T/K76T/M74I/N326S/N75E/Q271E/R371I); assay: cell-based; assay type: cell-based
How it was run: as §1

[4] = biological target: PfCRT^Ecu1110 (Plasmodium falciparum, UniProt Q9N623, A220S/I356L/K76T/N326D); assay: cell-based; assay type: cell-based
How it was run: as §1

[5] = biological target: T1, PfNT1 (Plasmodium falciparum, UniProt Q8IDM6); assay: cell-based; assay type: cell-based
T1 construct: expressed in transfected cells; host or cells: Xenopus laevis oocytes (stage V-VI), cRNA-injected
How it was run: as §1

PfCRT^3D7, sequence (Q8IBZ9 59-398): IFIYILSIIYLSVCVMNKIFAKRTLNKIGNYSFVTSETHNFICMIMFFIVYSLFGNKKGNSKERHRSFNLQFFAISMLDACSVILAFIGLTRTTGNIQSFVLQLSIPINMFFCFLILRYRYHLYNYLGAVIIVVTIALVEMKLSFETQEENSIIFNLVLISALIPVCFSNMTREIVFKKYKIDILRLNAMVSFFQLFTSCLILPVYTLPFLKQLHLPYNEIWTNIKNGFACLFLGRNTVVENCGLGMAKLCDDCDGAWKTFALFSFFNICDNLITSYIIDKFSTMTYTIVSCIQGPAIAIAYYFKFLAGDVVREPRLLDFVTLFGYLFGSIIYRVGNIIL
PfCRT^Dd2, sequence (Q9N623 whole entry A220S/I356T/K76T/M74I/N326S/N75E/Q271E/R371I): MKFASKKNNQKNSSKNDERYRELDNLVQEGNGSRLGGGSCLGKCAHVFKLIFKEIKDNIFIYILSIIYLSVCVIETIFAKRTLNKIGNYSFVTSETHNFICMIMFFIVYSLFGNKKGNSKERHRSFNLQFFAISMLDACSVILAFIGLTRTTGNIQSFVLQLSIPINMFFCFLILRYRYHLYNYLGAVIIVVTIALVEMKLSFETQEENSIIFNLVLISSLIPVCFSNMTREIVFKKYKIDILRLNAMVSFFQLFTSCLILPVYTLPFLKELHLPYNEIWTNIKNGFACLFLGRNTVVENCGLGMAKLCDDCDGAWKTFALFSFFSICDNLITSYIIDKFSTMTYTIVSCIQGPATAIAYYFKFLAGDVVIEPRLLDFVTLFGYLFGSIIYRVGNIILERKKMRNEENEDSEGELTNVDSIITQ
PfCRT^Ecu1110, sequence (Q9N623 whole entry A220S/I356L/K76T/N326D): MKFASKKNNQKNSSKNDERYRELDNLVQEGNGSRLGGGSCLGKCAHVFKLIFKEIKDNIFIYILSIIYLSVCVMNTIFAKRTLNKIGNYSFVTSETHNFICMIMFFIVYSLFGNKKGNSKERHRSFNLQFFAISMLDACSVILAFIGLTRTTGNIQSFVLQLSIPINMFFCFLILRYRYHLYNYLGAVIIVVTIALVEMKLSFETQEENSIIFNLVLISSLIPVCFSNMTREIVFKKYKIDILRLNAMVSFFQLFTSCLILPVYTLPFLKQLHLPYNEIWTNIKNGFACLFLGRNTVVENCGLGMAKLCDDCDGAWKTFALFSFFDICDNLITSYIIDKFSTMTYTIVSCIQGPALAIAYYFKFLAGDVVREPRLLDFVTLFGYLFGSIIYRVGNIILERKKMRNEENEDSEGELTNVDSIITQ
T1 sequence (Q8IDM6 whole entry): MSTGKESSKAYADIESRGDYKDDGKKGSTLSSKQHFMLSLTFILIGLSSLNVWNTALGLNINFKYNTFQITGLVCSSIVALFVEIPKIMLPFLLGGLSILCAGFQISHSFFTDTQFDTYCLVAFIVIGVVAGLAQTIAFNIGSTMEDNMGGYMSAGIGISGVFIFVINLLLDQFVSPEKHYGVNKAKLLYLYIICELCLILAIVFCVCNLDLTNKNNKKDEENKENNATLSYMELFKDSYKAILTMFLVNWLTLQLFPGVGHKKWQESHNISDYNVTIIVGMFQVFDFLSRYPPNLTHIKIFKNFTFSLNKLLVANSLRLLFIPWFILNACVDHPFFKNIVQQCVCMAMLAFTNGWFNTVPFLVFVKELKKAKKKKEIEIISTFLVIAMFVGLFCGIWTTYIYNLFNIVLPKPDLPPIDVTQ

## DPVN [VF-6-derived peptide]
[1]; Experiment 1
  [3H]CQ transport, non-expressing oocytes: 2.53 % PfCRTDd2 control
[1]; Experiment 2
  [3H]CQ transport, non-expressing oocytes: 2.64 % PfCRTDd2 control
[1]; Experiment 3
  [3H]CQ transport, non-expressing oocytes: 2.41 % PfCRTDd2 control
[1]; Experiment 4
  [3H]CQ transport, non-expressing oocytes: 2.56 % PfCRTDd2 control
[2]; Experiment 1
  [3H]CQ transport, PfCRT3D7: 12.64 % PfCRTDd2 control
[2]; Experiment 2
  [3H]CQ transport, PfCRT3D7: 13.46 % PfCRTDd2 control
[2]; Experiment 3
  [3H]CQ transport, PfCRT3D7: 12.14 % PfCRTDd2 control
[2]; Experiment 4
  [3H]CQ transport, PfCRT3D7: 11.36 % PfCRTDd2 control
[3]; Experiment 1
  [3H]CQ transport, PfCRTDd2: 100.43 % PfCRTDd2 control
[3]; Experiment 2
  [3H]CQ transport, PfCRTDd2: 99.77 % PfCRTDd2 control
[3]; Experiment 3
  [3H]CQ transport, PfCRTDd2: 98.92 % PfCRTDd2 control
[3]; Experiment 4
  [3H]CQ transport, PfCRTDd2: 101.43 % PfCRTDd2 control
[4]; Experiment 1
  [3H]CQ transport, PfCRTEcu1110: 32.63 % PfCRTDd2 control
[4]; Experiment 2
  [3H]CQ transport, PfCRTEcu1110: 30.52 % PfCRTDd2 control
[4]; Experiment 3
  [3H]CQ transport, PfCRTEcu1110: 37.36 % PfCRTDd2 control
[4]; Experiment 4
  [3H]CQ transport, PfCRTEcu1110: 30.52 % PfCRTDd2 control
[5]; Experiment 1
  [3H]CQ transport, PfNT1: 3.52 % PfCRTDd2 control
[5]; Experiment 2
  [3H]CQ transport, PfNT1: 3.38 % PfCRTDd2 control
[5]; Experiment 3
  [3H]CQ transport, PfNT1: 3.26 % PfCRTDd2 control
[5]; Experiment 4
  [3H]CQ transport, PfNT1: 3.33 % PfCRTDd2 control
